Test results: ChEMBL document CHEMBL5150002, “Molecular Glues for Targeted Protein Degradation: From Serendipity to Rational Discovery” (J Med Chem, 2021)

Columns and labels:
[1] = biological target: T1, DNA damage-binding protein 1/Cyclin-dependent kinase 12/Cyclin-K (Homo sapiens, UniProt O75909+Q16531+Q9NYV4); assay: Molecular glue activity at human CDK12 (715 to 1052 residues)/Cyclin K/human DDB1-[…]-RBX1 expressed in baculovirus expression system assessed as Cyclin K protein degradation
[2] = biological target: T1, DNA damage-binding protein 1/Cyclin-dependent kinase 12/Cyclin-K; assay: Molecular glue activity at human CDK12/CCNK (11 to 267 residues)/human DDB1-CUL4-RBX1 expressed in baculovirus expression system in human 293 TA cells assessed as CCNK protein degradation

T1 sequence (O75909 whole entry, the tested form may be a part): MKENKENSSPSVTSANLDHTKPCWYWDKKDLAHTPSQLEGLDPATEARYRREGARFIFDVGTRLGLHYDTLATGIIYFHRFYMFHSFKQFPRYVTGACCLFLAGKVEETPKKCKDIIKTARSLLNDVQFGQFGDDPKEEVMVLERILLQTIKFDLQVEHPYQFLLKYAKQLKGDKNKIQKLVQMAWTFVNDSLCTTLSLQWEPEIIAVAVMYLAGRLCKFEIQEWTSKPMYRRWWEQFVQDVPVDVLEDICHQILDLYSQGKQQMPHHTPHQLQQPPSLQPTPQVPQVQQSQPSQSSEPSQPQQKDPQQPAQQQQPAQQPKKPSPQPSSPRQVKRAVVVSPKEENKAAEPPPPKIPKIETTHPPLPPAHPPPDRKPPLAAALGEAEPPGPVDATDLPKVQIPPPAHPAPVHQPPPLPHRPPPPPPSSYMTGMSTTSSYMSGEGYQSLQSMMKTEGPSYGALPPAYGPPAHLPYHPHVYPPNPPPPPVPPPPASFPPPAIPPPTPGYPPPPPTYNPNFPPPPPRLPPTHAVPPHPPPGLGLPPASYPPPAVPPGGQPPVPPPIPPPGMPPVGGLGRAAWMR
T1 sequence (Q9NYV4 whole entry, the tested form may be a part): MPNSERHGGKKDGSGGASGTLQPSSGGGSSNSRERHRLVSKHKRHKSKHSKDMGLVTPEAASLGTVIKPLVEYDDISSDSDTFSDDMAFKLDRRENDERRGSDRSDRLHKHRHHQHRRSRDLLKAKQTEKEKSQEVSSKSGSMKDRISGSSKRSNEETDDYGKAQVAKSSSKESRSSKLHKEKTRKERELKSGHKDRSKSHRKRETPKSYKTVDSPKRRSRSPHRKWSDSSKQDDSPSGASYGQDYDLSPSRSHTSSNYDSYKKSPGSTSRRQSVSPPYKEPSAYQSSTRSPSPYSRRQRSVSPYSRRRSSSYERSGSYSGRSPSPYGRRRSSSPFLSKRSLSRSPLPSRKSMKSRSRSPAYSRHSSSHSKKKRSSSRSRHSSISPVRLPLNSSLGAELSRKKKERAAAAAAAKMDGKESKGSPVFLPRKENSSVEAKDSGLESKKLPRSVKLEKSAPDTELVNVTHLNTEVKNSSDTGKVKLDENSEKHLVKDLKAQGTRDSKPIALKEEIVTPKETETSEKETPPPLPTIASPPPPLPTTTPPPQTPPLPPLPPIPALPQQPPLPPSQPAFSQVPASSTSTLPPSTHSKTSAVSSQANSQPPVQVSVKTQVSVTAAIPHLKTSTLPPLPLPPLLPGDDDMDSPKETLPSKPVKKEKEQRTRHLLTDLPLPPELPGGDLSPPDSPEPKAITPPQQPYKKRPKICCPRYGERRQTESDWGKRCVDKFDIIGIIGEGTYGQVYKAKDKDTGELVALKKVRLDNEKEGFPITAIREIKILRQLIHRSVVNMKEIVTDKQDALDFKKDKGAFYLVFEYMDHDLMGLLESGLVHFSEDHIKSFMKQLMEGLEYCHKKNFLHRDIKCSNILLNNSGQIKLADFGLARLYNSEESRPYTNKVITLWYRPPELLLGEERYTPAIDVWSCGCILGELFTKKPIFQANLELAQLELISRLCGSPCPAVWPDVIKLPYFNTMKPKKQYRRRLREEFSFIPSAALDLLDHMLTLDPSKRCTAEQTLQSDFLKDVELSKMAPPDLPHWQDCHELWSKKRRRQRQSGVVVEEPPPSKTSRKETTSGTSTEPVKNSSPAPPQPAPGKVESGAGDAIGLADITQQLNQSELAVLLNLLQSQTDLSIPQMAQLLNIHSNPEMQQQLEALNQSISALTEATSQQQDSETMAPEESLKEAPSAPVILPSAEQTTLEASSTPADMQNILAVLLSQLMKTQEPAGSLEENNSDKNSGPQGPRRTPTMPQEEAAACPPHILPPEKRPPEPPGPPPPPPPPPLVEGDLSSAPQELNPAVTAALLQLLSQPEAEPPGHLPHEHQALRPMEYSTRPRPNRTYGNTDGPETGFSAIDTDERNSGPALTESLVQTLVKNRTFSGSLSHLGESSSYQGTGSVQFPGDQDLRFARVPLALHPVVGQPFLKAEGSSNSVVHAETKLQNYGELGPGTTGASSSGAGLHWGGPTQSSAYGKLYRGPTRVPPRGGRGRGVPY
T1 sequence (Q16531 whole entry, the tested form may be a part): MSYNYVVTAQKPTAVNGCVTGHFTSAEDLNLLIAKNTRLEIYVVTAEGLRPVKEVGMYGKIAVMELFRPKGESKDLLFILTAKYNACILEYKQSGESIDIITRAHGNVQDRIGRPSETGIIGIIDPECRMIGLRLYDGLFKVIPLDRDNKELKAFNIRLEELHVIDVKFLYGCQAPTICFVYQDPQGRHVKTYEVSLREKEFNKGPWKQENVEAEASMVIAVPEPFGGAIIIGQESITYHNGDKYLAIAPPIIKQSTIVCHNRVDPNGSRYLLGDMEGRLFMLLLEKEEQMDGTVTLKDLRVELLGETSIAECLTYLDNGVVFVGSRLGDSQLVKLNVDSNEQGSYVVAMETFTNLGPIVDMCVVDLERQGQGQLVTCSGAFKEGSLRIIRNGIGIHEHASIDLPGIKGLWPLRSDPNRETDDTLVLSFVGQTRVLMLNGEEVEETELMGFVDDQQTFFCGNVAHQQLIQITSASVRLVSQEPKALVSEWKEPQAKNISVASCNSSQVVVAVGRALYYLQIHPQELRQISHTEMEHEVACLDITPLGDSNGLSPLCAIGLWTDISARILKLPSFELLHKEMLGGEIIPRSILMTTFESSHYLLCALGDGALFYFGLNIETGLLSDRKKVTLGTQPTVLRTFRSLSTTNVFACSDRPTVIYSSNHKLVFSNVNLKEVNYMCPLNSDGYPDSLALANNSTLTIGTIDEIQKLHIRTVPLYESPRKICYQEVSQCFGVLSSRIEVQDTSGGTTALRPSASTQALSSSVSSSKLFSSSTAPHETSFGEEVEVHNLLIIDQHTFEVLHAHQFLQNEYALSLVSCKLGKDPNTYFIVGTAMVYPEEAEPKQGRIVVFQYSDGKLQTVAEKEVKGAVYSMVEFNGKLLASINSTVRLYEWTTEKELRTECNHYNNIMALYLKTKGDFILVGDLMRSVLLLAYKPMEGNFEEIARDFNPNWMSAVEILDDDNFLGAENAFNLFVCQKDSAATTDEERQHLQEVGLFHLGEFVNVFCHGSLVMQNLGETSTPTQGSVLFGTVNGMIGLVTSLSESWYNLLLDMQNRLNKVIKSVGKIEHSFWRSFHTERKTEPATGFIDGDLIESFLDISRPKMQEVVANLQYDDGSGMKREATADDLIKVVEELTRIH

Row | Compound | EC50 [1] | EC50 [2]
1 | Cc1cccc(Nc2nc(CC(=O)Nc3ncc(C)s3)cs2)n1 | 461 nM | 132 nM
2 | Cc1cnc(NC(=O)Cc2csc(Nc3cccc(CO)n3)n2)s1 |  | 41 nM
